Patent publication US7947279B2, “Peptide having hydrolase activity” (The Trustees of Columbia University in the City of New York, priority 2005, dated 2011)
Entries after “also recorded” stand apart in the source; their conditions may differ.

Columns and labels:
[1] = test system: CA1-LTP in hippocampal slices; test: CA1-LTP in hippocampal slices (theta-burst); type: cell-based, mouse; conditions: for baseline transmission in slices without tetanic stimulation: non-tetanized slices; for rescue of LTP at different concentrations, S18Y versus TAT-HA-Uch-L1 (words): 1 hr pre-treatment, then Aβ 200 nM 20 min, as low as 5 nM; for Aβ-induced impairment of CA1-LTP (words): fusion protein 20 nM 1 hr, then plus Aβ 200 nM 20 min
Uch-L1 = test: Hydrolase (ubiquitin-AMC) assay on hippocampal slices; type: cell-based, mouse; conditions: 200 nM Aβ alone
Experimental: Slice preparation. Mice were decapitated and their hippocampi removed. […] Slices were permitted to recover from cutting for at least 90 min. before recordings. For experiments with lactacystin, slices were perfused with the drug or vehicle for 2 to 4 hrs in a small volume (10 ml) chamber.
Briefly, hippocampal tissue was treated with tissue protein extraction reagent (T-PER; Pierce) containing freshly added EDTA-free protease inhibitors. Homogenate was centrifuged at 10,000 rpm for 5 min. Protein concentration was measured in the supernatant using the BCA protein assay reagent. In some experiments hydrolysis was initiated by adding 10 μl of 20 nM Uch-L1 or Uch-L3 (Boston Biochem). The hydrolase assay was performed using fluorogenic ubiquitin-7-amino-4-methylcoumarin (ubiquitin-AMC) (Boston Biochem) as a substrate. The substrate was diluted in assay buffer (50 mM Tris-HCL, 0.5 mM EDTA, 5 mM dithiothreitol and 0.1 mg/ml ovalbumin, pH 7.6). Each reaction mixture containing 400 nM substrate and 100 μg enzyme sample was incubated for 5 min at room temperature. The reaction was monitored using a fluorescence spectrophotometer (CytoFluor Series 4000, ABI Inc) at 25° C. The free AMC fluorophore was excited at 380 nm and measured at 460 nm. […] In some experiments, hydrolysis was also measured on the soluble and insoluble fractions (FIG. 28D). In a group of experiments hydrolysis was measured by mixing ubiquitin-AMC with 20 nM TAT fusion proteins (FIG. 27C). In other experiments the substrate was Nedd8-AMC (Boston Biochem).

[2] = test system: BST at the Schaffer collateral/CA1 connection of hippocampal slices; test: Basal synaptic transmission (BST) in hippocampal slices; type: cell-based, mouse
monoubiquitin = test: Monoubiquitin levels (quantitative Western blot); type: cell-based, mouse
Experimental: (§1) Western Blotting: Protein levels were assessed using standard procedures. Protein extraction was performed using buffer with and without detergent. For the extraction of protein using detergent, hippocampal tissues and cultured hippocampal neurons (5 DIV) were homogenized in RIPA buffer (50 mM Tris-HCl pH 7.4, 1% Triton X-100, 1% sodium deoxycholate, 0.1% SDS, 150 mM sodium chloride, 10 mM sodium fluoride, 30 mM sodium pyrophosphate, 50 mM sodium orthovanadate) containing 1× complete protease inhibitor (Roche) and 1 mM phenylmethylsulfonyl fluoride (PMSF). For extraction of proteins without detergent, hippocampal extracts were homogenized with disposable dounce homogenizers in buffer A, containing 10 mM HEPES pH 7.3, 300 mM sucrose, protease 1× complete protease inhibitor (Roche) and PMSF. After centrifugation at 10,000×g supernatant proteins were resolved on a 8% or 4-20% gradient Tris-Glycine gel, transferred onto PVDF or nitrocellulose membrane and blocked in 5% skim milk in PBS-Tween 0.1% (PBS-T). Membranes were probed with primary antibodies, and after washing with PBS-T incubated with an appropriate HRP-conjugated secondary antibody. The following antibodies were used: mouse monoclonal anti-ubiquitin (Chemicon), rabbit polyclonal anti-pCREB (Upstate Biotech.), rabbit polyclonal anti-PKA-RIIα (Santa Cruz Biotech. Inc), mouse monoclonal anti-Uch-L1 (Novocastra), monoclonal mouse anti-HA (Santa Cruz Biotech. Inc), and anti-PKA IIα. Detection was performed using HRP-conjugated secondary antibodies (Pierce, Rockford, Ill.). To control loading and transfer, protein immunoreactivities were normalized against total extracellular signal-regulated protein kinases (ERK1/2) levels with a rabbit analyzed using a rabbit polyclonal anti-ERK1/2 antibody (Cell Signaling Technology, Inc). NIH IMAGE was used to analyze the scanned blots and quantify the intensity of the protein signals.

[3] = test system: SY5Y neuroblastoma cells transfected with a degron CL1-GFP expression vector; test: Proteasome reporter assay (GFP^u); type: cell-based, human; conditions: substance alone
Experimental: Proteasome reporter assays. In this cell line, human neuroblastoma SH-SY5Y cells were permanently transfected with reporter construct consisting of green fluorescent protein (GFP) conjugated at its C-terminus to a short degron sequence (CL-1) (Gilon et al., 1998). […] The SY5Y-GFP^u cells were grown in 1×DMEM (Invitrogen) supplemented with 15% fetal bovine serum (JRH), 1× penicillin/streptomycin (Gibco). After indicated treatments, GFP^u concentrations were assayed by densitometric analysis of immunoblots of total protein extracts (10 ug/lane) using monoclonal GFP antibodies (Santa Cruz Biotechnology) and visualized with HRP-conjugated secondary antibodies and ECL (Pierce). Loading equalization was normalized by probing blots with anti-ERK antibodies (Santa Cruz Biotechnology).

PKA [4] = test: PKA kinase activity in hippocampal slices; type: cell-based, mouse
PKA [5] = test: PKA kinase activity in hippocampal cultures; type: cell-based, rat
Experimental: PKA Kinase Activity Measurement. Primary hippocampal neurons from E18 rats were dissociated and cultured as described (Vitolo et al, Proc Natl Acad Sci USA 99:13217-13221 (2002)). […]
Hippocampal slices were lysed with RIPA lysis buffer and homogenized by Dounce homogenizer on ice. 5 DIV primary cultures were treated for 24 hrs and cells were lysed with RIPA lysis buffer.
Levels of intracellular PKA kinase activity were measured by PKA Kinase Activity Assay Kit (Stressxpress) according to manufacturer's instructions.
(§2) Preparation of Cell Cultures. Hippocampal cell cultures were prepared as previously described (Vitolo et al., 2002). In cell culture experiments fetuses at embryonic day 18 from timed pregnant Sprague-Dawley rats (Taconic Farms) were used. Fetuses were sacrificed and the hippocampi removed. Neurons were then dissociated, plated on 6 well-plates coated with poly-L-lysine and maintained in a defined serum-free medium containing minimum essential medium supplemented with N-2, glucose, albumin, pyruvic acid, antibiotics and antimycotics. […] 5 DIV cells were used for the experiments.

PKA RIIα = PKA RIIα levels in hippocampal slices (Western blot); type: cell-based, mouse; conditions: for PKA RIIα levels (words): Aβ 200 nM 20 min alone
Experimental: as §1

cAMP = test: Intracellular cAMP enzyme immunoassay; type: cell-based, rat; conditions: Aβ 3 μM 24 hrs alone
Experimental: Intracellular cAMP Enzyme Immunoassay. Hippocampal neurons from E18 rats were dissociated and plated on poly-L-lysine coated 6-well plates in minimum essential medium supplemented with N-2, glucose, albumin, pyruvic acid, antibiotics and antimycotics. […] After 24 hours, cell lysates were obtained and intracellular cAMP levels were measured using cAMP Biotrak Enzymeimmunoassay (EIA) System (Amersham) in accordance with manufacturer's instructions.

phospho-CREB = test: Phospho-CREB immunofluorescence in hippocampal slices; type: cell-based, mouse; conditions: for tetanus-induced increase in phospho-CREB (words): Aβ alone
phospho-CREB at Ser-133 = test: Phospho-CREB (Ser-133) Western blot in hippocampal cultures; type: cell-based, rat; conditions: for glutamate-induced CREB phosphorylation (words): 3 μM Aβ 24 hrs alone; for effect of Aβ on glutamate-induced CREB phosphorylation (words): fusion protein 100 nM, 3 μM Aβ 24 hrs, 50 μM glutamate 15 min
Experimental: as §1, §2

[6] = test system: PPF in hippocampal slices; test: Paired pulse facilitation (PPF) in hippocampal slices; type: cell-based, mouse
[7] = lactacystin 10 μM, 2 to 4 hour exposure
[8] = prolonged exposure lactacystin 10 μM

For `CCCCCCOC(=O)[C@]1(O)C[C@@H]2O[C@@]1(C)n1c3ccccc3c3c4c(c5c6ccccc6n2c5c31)C(=O)NC4` [KT5720, reference compound], the “reversal of LTP reduction by Uch-L1 fusion protein” value ([1]; KT5720 1 μM, Uch-L1 fusion protein 20 nM, Aβ 200 nM) was “blocked”.

“Aβ: oligomeric Aβ42 prepared from lyophilized synthetic peptide (American Peptide) [reference compound]” was tested, and the “ubiquitin-c-terminal hydrolase enzymatic activity” value (Uch-L1) was 72.36±6.81 % of TAT-HA treated WT slices, the “LTP” value ([1]; Aβ 200 nM alone) was “markedly reduced; also recorded: LTP was reduced” and the “LTP at 120 min after tetanus” value ([1]; oligomeric Aβ 200 nM, 20 min perfusion) was 136.34±13.40 % of baseline slope. The “BST in WT slices (words)” value ([2]; fusion protein 20 nM 1 hr or Aβ 200 nM 20 min, alone) was “did not reveal any significant difference among treatments; also recorded: does not affect CA1-BST”, the “decrease of monoubiquitin levels” value (monoubiquitin; oligomeric Aβ42 200 nM for 20 min) was ~70% and the “monoubiquitin levels” value (monoubiquitin; substance alone) was “reduced”. For the same molecule, the “GFP^u levels” value [3] was “increase in GFP levels”, the “PKA activity in slices” value (PKA [4]; 200 nM Aβ for 20 min alone) was “reduced” and the PKA activity (PKA [4]; 200 nM Aβ for 20 minutes) was 71.75±2.21 % of control. The “PKA activity in cultures” value (PKA [5]; 3 μM Aβ for 24 hrs alone) was “reduced”, the “PKA RIIα levels (words)” value (PKA RIIα) was “increase in PKA RIIα levels” and the “PKA RIIα levels (words)” value (PKA RIIα; listed as Aβ42) was “marked increase in RIIα”. For the same molecule, the “PKA RIIα levels (words)” value (PKA RIIα; listed as amyloid-beta) was “increased”, the RIIα levels (PKA RIIα; Aβ42 200 nM for 20 minutes) was 163.68±10.51 % of TAT-HA control slices and the “cAMP levels” value (cAMP) was “reduced cAMP levels”. The “tetanus-induced increase in phospho-CREB (words)” value (phospho-CREB) was “blocks the increase in phosphorylated CREB; also recorded: blocked the increase in phospho-CREB; also recorded: blockade of the increase in CA1-phospho-CREB”, the “tetanus-induced increase in phospho-CREB (words)” value (phospho-CREB; listed as Aβ42) was “blocked the increase in CA1 immunofluorescence” and the “phospho-CREB immunofluorescence without theta-burst” value (phospho-CREB; no tetanus) was “did not increase immunofluorescence; also recorded: did not modify immunofluorescence; also recorded: neither Aβ42 alone nor TAT-HA-Uch-L1 alone nor TAT-HA-Uch-L1 paired with Aβ42 induced changes”. The “glutamate-induced CREB phosphorylation (words)” value (phospho-CREB at Ser-133) was “annulled the increase in phospho-CREB” and the “glutamate-induced CREB phosphorylation (words)” value (phospho-CREB at Ser-133; listed as Aβ42) was “strong decrease in CREB phosphorylation”.

With `CC(=O)N[C@@H](CSC(=O)[C@]1([C@@H](O)C(C)C)NC(=O)[C@H](C)[C@@H]1O)C(=O)O` [lactacystin, reference compound] the “LTP” value ([1]; lactacystin 10 μM, 2-4 hrs) was “markedly reduced; also recorded: blocked”, the LTP [1, 7] was “approximately 50 % that of vehicle treated slices” and the “LTP” value ([1]; lactacystin 10 μM, 15 min) was “did not change; also recorded: does not affect; also recorded: did not affect CA1-LTP”. The “baseline transmission in slices without tetanic stimulation” value [1] was “did not affect baseline transmission”, the “LTP at 60 min” value [1, 8] was 116.17±14.69% and the “LTP at 120 min” value [1, 8] was 119.25±12.82 % of baseline. The “BST” value ([2]; lactacystin 10 μM, 2-4 hrs) was “markedly reduced; also recorded: strongly reduced”, the “BST (slope of the input-output curve at 35 V)” value [2, 7] was “approximately 50 % that of vehicle treated slices” and the “BST” value ([2]; lactacystin 10 μM, 15 min) was “did not change; also recorded: does not affect; also recorded: did not affect BST”. For the same molecule, the “BST at 35V stimulation” value [2, 8] was 0.93±0.06 mV/ms, the “PPF” value ([6]; lactacystin 10 μM, 2-4 hrs) was “markedly reduced” and the “PPF at 50 ms interval” value [6, 8] was 150.96±10.18%. For the same molecule, the “PPF at 300 ms interval” value [6, 8] was 119.11±5.43%, the “GFP^u levels” value [3] was “much larger increase in GFP” and the PKA activity (PKA [4]; lactacystin 10 μM 1 hr pretreatment, TAT-HA-Uch-L1 plus Aβ) was 74.9±3.21%. The “beneficial effect of TAT-HA-Uch-L1 on PKA activity” value (PKA [5]; lactacystin 10 μM for 1 hr) was “blocked the beneficial effect”.

B1: TAT-HA-Uch-L1(S18Y): mutant TAT-HA-Uch-L1 construct, S18Y (ligase site), made by site-directed mutagenesis (protein, UniProt P09936 1-220, looked up, variant S18Y)
Ubiquitin carboxyl-terminal …: MQLKPMEINPEMLNKVLYRLGVAGQWRFVDVLGLEEESLGSVPAPACALLLLFPLTAQHENFRKKQIEELKGQEVSPKVYFMKQTIGNSCGTIGLIHAVANNQDKLGFEDGSVLKQFLSETEKMSPEDRAKCFEKNEAIQAAHDAVAQEGQCRVDDKVNFHFILFNNVDGHLYELDGRMPFPVNHGASSEDTLLKDAAKVCREFTEREQGEVRFSAVALC
modifications: fused to HIV TAT transduction peptide and HA tag
notes: mutant TAT-HA-Uch-L1 construct, S18Y (ligase site), made by site-directed mutagenesis
With B1 the “rescue of LTP at different concentrations, S18Y versus TAT-HA-Uch-L1 (words)” value [1] was “no difference between the two forms”, the “rescue of LTP at different concentrations, S18Y versus TAT-HA-Uch-L1 (words)” value ([1]; listed as TAT-HA-Uch-L1 (S18Y)) was “No difference was detected” and the “Aβ-induced impairment of CA1-LTP (words)” value [1] was “protected; also recorded: completely reversed”. The “Aβ-induced impairment of CA1-LTP (words)” value ([1]; listed as TAT-HA-Uch-L1 (S18Y)) was “significantly enhanced the amplitude of LTP”, the “LTP in slices not treated with Aβ (words)” value ([1]; fusion protein 20 nM, 1 hr, WT slices, 3 theta-burst trains) was “did not affect the amounts of potentiation” and the “baseline transmission in slices without tetanic stimulation” value [1] was “Neither TAT-HA-Uch-L1(C90S) nor TAT-HA-Uch-L1(S18Y) affected baseline; also recorded: nor affected basal transmission”. For the same molecule, the “effect of Aβ on glutamate-induced CREB phosphorylation (words)” value (phospho-CREB at Ser-133) was “totally blocked the effect of Aβ on CREB phosphorylation; also recorded: completely opposed” and the “effect of Aβ on glutamate-induced CREB phosphorylation (words)” value (phospho-CREB at Ser-133; listed as TAT-HA-Uch-L1 (S18Y)) was “completely opposed”.
